# Measurements as given in PMC12300041, “Tricyclic Isatin Derivatives as Anti-Inflammatory Compounds with High Kinase Binding Affinity” (Molecules, 2025).
# Key:
# Assay in all cases: KINOMEscan
# Format in all cases: binding
# ACVRL1 = target: T1, ACVRL1 (Homo sapiens, UniProt P37023)
# T1 construct: purchased Eurofins DiscoverX KINOMEscan
# Procedure, shortened: (§1)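 Quantitative PCR measured kinase retained on an immobilized affinity ligand, i.e. kinase not bound by test compound, after 1 h binding at room temperature. Kd came from 12 half-log concentrations up to 33 μM.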
# PRKG1 = target: T2, PRKG1 (Homo sapiens, UniProt Q13976)
# T2 construct: purchased Eurofins DiscoverX KINOMEscan
# Procedure, shortened: as §1
# EPHB3 = target: T3, EPHB3 (Homo sapiens, UniProt P54753)
# T3 construct: purchased Eurofins DiscoverX KINOMEscan
# Procedure, shortened: (§2)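 Kd determination: 12-pt half-log series, top 33 μM; 1 h binding, RT; unbound kinase pulled down on immobilized ligand, measured by qPCR.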
# MLCK = target: T4, MLCK (Homo sapiens, UniProt Q32MK0)
# T4 construct: purchased Eurofins DiscoverX KINOMEscan
# Procedure, shortened: as §2
# RET = target: T5, RET (Homo sapiens, UniProt P07949)
# T5 construct: purchased Eurofins DiscoverX KINOMEscan
# Procedure, shortened: as §2
# IGF1R = target: T6, IGF1R (Homo sapiens, UniProt P08069)
# T6 construct: purchased Eurofins DiscoverX KINOMEscan
# Procedure, shortened: as §1
# JAK3 (JH1domain-cat.) = target: T7, JAK3 (JH1domain-cat.) (Homo sapiens, UniProt P52333)
# T7 construct: JAK3 (JH1domain-cat.); purchased Eurofins DiscoverX KINOMEscan
# Procedure, shortened: as §2
# [1] = target: T8, RSK1 (Kin. Dom.1-N-term.) (Homo sapiens, UniProt Q15418)
# T8 construct: RSK1 (Kin. Dom.1-N-term.); purchased Eurofins DiscoverX KINOMEscan
# Procedure, shortened: as §1
# RIOK2 = target: T9, RIOK2 (Homo sapiens, UniProt Q9BVS4)
# T9 construct: purchased Eurofins DiscoverX KINOMEscan
# Procedure, shortened: as §2
# MAP3K19 = target: T10, MAP3K19 (Homo sapiens, UniProt Q56UN5)
# T10 construct: purchased Eurofins DiscoverX KINOMEscan
# Procedure, shortened: as §2
# [2] = target: T11, JAK1 (JH2domain-pseudokinase) (Homo sapiens, UniProt P23458)
# T11 construct: JAK1 (JH2domain-pseudokinase); purchased Eurofins DiscoverX KINOMEscan
# T11 sequence (P23458 561-860 limits assumed): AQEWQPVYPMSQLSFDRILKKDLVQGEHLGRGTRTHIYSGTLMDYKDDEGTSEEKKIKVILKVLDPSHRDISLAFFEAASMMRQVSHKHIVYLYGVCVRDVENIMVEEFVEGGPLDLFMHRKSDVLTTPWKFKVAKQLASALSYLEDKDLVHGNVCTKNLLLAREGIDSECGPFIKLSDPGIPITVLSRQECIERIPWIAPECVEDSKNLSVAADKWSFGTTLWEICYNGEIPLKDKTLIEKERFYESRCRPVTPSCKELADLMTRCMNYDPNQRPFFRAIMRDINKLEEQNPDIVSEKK
# Procedure, shortened: as §1
# GRK7 = target: T12, GRK7 (Homo sapiens, UniProt Q8WTQ7)
# T12 construct: purchased Eurofins DiscoverX KINOMEscan
# Procedure, shortened: as §2
# BUB1 = target: T13, BUB1 (Homo sapiens, UniProt O43683)
# T13 construct: purchased Eurofins DiscoverX KINOMEscan
# Procedure, shortened: as §1
# PCTK2 = target: T14, PCTK2 (Homo sapiens, UniProt Q00537)
# T14 construct: purchased Eurofins DiscoverX KINOMEscan
# Procedure, shortened: as §2
# [3] = target: T15, RSK3 (Kin. Dom.1-N-term.) (Homo sapiens, UniProt Q15349)
# T15 construct: RSK3 (Kin. Dom.1-N-term.); purchased Eurofins DiscoverX KINOMEscan
# Procedure, shortened: as §2
# JAK2 (JH1domain-cat.) = target: T16, JAK2 (JH1domain-cat.) (Homo sapiens, UniProt O60674)
# T16 construct: JAK2 (JH1domain-cat.); purchased Eurofins DiscoverX KINOMEscan
# T16 sequence (O60674 840-1132 limits assumed): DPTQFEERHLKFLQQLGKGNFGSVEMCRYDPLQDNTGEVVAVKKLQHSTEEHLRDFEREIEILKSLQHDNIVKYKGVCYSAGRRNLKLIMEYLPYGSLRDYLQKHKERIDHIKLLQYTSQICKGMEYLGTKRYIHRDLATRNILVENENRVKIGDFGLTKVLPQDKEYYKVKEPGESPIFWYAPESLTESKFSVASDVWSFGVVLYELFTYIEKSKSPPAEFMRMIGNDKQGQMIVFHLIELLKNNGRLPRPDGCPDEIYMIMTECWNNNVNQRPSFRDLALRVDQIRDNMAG
# Procedure, shortened: as §1
# LATS1 = target: T17, LATS1 (Homo sapiens, UniProt O95835)
# T17 construct: purchased Eurofins DiscoverX KINOMEscan
# Procedure, shortened: as §2
# STK36 = target: T18, STK36 (Homo sapiens, UniProt Q9NRP7)
# T18 construct: purchased Eurofins DiscoverX KINOMEscan
# Procedure, shortened: as §1
# PIK3CA (I800L) = target: T19, PIK3CA (I800L) (Homo sapiens, UniProt P42336, I800L)
# T19 construct: purchased Eurofins DiscoverX KINOMEscan
# T19 sequence (P42336 whole entry I800L): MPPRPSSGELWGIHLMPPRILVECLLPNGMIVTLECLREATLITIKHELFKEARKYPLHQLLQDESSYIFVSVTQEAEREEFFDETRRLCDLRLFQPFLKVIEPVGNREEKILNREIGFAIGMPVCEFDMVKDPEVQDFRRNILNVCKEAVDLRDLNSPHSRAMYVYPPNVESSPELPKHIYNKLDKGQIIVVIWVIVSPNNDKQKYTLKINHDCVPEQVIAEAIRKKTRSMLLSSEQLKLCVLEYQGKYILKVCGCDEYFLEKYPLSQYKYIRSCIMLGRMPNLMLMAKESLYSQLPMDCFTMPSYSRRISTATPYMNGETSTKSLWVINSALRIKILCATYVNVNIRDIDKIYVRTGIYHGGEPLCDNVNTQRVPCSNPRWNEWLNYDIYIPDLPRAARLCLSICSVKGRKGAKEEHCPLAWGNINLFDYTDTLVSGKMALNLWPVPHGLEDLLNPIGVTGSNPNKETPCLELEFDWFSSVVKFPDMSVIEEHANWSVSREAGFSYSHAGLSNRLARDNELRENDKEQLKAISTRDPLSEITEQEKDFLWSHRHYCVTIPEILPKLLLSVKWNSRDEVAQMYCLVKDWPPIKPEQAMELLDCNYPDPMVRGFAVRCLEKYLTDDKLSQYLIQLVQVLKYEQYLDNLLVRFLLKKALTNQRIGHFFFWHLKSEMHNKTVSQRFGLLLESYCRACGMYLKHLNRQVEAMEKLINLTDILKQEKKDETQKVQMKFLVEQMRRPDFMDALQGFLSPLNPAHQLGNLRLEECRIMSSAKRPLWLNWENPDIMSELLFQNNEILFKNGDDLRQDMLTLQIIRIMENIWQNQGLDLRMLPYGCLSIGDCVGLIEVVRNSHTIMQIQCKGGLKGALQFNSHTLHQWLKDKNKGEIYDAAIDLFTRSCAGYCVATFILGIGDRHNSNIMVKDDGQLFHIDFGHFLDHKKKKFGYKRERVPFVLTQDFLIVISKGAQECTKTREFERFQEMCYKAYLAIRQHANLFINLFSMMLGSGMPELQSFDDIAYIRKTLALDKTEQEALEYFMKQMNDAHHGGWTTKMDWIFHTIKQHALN
# Procedure, shortened: as §2
# ACVR1 = target: T20, ACVR1 (Homo sapiens, UniProt Q04771)
# T20 construct: purchased Eurofins DiscoverX KINOMEscan
# Procedure, shortened: as §2
# CAMK1G = target: T21, CAMK1G (Homo sapiens, UniProt Q96NX5)
# T21 construct: purchased Eurofins DiscoverX KINOMEscan
# Procedure, shortened: as §2
# IKK-ε = target: T22, IKK-ε (Homo sapiens, UniProt Q14164)
# T22 construct: purchased Eurofins DiscoverX KINOMEscan
# Procedure, shortened: as §1
# AKT1 = target: T23, AKT1 (Homo sapiens, UniProt P31749)
# T23 construct: purchased Eurofins DiscoverX KINOMEscan
# Procedure, shortened: as §1
# S6K1 = target: T24, S6K1 (Homo sapiens, UniProt P23443)
# T24 construct: purchased Eurofins DiscoverX KINOMEscan
# Procedure, shortened: as §2
# CDK2 = target: T25, CDK2 (Homo sapiens, UniProt P24941)
# T25 construct: purchased Eurofins DiscoverX KINOMEscan
# Procedure, shortened: as §2
# TLK1 = target: T26, TLK1 (Homo sapiens, UniProt Q9UKI8)
# T26 construct: purchased Eurofins DiscoverX KINOMEscan
# T26 sequence (Q9UKI8 whole entry): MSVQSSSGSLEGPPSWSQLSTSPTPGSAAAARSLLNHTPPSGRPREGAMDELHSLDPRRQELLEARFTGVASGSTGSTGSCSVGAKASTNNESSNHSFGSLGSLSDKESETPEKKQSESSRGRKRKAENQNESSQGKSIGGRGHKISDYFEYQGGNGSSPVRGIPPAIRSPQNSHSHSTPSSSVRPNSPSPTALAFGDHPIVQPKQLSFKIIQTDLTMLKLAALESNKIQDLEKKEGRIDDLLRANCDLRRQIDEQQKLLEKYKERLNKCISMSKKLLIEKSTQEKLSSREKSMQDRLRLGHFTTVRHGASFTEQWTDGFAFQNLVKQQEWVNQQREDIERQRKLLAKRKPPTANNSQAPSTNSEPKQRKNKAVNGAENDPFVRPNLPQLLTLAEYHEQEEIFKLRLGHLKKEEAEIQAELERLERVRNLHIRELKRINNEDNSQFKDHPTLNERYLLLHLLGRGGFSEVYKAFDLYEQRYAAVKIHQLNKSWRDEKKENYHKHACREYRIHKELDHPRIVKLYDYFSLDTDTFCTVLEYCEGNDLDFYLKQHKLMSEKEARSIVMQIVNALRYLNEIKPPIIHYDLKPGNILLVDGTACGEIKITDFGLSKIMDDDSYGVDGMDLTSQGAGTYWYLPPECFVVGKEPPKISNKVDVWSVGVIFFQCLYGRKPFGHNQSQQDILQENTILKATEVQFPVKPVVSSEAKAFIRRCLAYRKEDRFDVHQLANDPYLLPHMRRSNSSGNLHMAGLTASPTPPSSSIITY
# Procedure, shortened: as §2
# CLK2 = target: T27, CLK2 (Homo sapiens, UniProt P49760)
# T27 construct: purchased Eurofins DiscoverX KINOMEscan
# Procedure, shortened: as §1
# PYK2 = target: T28, PYK2 (Homo sapiens, UniProt Q14289)
# T28 construct: purchased Eurofins DiscoverX KINOMEscan
# Procedure, shortened: as §2
# PKMYT1 = target: T29, PKMYT1 (Homo sapiens, UniProt Q99640)
# T29 construct: purchased Eurofins DiscoverX KINOMEscan
# Procedure, shortened: as §2
# KIT (V559D) = target: T30, KIT (V559D) (Homo sapiens, UniProt P10721, V559D)
# T30 construct: purchased Eurofins DiscoverX KINOMEscan
# Procedure, shortened: as §2
# LATS2 = target: T31, LATS2 (Homo sapiens, UniProt Q9NRM7)
# T31 construct: purchased Eurofins DiscoverX KINOMEscan
# T31 sequence (Q9NRM7 whole entry): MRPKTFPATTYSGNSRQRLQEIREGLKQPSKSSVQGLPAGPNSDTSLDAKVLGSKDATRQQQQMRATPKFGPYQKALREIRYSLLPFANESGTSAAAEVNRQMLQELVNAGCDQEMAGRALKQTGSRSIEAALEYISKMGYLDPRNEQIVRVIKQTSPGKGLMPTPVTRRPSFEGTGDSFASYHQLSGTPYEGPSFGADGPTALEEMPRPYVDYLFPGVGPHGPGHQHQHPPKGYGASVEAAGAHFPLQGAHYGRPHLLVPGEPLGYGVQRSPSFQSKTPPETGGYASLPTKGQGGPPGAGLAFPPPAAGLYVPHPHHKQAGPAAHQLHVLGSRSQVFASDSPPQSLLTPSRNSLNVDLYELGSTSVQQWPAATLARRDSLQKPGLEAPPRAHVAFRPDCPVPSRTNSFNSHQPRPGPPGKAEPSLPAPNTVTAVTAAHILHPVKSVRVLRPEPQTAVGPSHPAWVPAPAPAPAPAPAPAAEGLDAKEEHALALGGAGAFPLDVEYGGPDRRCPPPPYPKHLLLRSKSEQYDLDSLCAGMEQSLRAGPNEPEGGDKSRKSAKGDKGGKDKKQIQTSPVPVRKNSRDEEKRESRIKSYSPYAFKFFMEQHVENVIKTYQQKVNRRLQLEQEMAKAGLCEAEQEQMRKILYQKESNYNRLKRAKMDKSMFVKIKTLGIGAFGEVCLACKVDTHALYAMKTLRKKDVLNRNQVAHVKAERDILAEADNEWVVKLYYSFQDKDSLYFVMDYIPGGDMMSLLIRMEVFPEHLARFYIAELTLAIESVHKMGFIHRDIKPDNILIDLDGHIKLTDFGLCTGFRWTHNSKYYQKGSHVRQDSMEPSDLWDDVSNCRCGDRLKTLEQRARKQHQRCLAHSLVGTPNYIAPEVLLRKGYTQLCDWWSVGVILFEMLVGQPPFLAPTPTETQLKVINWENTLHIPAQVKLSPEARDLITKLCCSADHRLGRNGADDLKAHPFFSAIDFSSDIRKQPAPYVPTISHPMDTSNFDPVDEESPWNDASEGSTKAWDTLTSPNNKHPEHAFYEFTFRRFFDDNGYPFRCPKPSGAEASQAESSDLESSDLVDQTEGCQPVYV
# Procedure, shortened: as §2
# MAP3K1 = target: T32, MAP3K1 (Homo sapiens, UniProt Q13233)
# T32 construct: purchased Eurofins DiscoverX KINOMEscan
# Procedure, shortened: as §2
# ERBB3 = target: T33, ERBB3 (Homo sapiens, UniProt P21860)
# T33 construct: purchased Eurofins DiscoverX KINOMEscan
# T33 sequence (P21860 20-1342): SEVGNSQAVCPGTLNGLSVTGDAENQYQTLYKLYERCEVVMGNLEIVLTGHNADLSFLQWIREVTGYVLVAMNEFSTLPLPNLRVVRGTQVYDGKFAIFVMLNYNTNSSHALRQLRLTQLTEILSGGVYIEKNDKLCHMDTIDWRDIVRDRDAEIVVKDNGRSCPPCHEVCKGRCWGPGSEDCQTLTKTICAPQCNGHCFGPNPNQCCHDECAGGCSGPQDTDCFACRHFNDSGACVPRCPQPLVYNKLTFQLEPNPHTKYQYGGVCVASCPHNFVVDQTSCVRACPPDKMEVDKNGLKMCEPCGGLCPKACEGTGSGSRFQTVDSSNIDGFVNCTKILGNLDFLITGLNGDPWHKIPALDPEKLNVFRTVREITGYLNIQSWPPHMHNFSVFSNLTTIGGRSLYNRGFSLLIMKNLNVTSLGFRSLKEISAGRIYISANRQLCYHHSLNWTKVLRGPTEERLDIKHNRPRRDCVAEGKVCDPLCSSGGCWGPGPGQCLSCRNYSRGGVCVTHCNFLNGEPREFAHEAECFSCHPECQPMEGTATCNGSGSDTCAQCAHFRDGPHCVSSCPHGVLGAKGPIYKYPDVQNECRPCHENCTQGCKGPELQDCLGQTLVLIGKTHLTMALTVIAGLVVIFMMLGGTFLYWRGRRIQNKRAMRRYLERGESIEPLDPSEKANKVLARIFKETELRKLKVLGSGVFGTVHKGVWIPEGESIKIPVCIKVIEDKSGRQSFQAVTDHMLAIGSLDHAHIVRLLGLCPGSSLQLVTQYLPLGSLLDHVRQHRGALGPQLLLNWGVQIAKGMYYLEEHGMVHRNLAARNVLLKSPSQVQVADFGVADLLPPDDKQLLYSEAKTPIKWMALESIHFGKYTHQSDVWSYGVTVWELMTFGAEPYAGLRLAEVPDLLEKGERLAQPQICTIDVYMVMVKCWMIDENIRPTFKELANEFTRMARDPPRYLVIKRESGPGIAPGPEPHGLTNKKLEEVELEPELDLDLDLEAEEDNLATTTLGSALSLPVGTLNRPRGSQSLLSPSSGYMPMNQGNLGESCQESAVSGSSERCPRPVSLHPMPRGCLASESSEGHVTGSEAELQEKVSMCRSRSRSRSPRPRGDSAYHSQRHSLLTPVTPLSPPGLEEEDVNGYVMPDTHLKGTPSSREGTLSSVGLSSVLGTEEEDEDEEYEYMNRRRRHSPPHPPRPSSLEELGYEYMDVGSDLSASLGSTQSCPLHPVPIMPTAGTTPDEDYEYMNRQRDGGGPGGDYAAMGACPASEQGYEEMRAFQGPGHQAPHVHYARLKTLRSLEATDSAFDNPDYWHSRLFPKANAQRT
# Procedure, shortened: as §2
# TESK1 = target: T34, TESK1 (Homo sapiens, UniProt Q15569)
# T34 construct: purchased Eurofins DiscoverX KINOMEscan
# Procedure, shortened: as §1
# ERK1 = target: T35, ERK1 (Homo sapiens, UniProt P27361)
# T35 construct: purchased Eurofins DiscoverX KINOMEscan
# Procedure, shortened: as §2
# JNK1 = target: T36, JNK1 (Homo sapiens, UniProt P45983)
# T36 construct: purchased Eurofins DiscoverX KINOMEscan
# Procedure, shortened: as §1
# SGK = target: T37, SGK (Homo sapiens, UniProt O00141)
# T37 construct: purchased Eurofins DiscoverX KINOMEscan
# Procedure, shortened: as §2
# CSNK1G3 = target: T38, CSNK1G3 (Homo sapiens, UniProt Q9Y6M4)
# T38 construct: purchased Eurofins DiscoverX KINOMEscan
# Procedure, shortened: as §2
smiles,measurement,setting,value
"O=C1Nc2c(cc([N+](=O)[O-])c3c2CCCC3)C1=NO [Compound 5d, 3-(Hydroxyimino)-5-nitro-1,3,6,7,8,9-hexahydro-2H-benzo[g]indol-2-one]",inhibition at 10 µM,ACVRL1,0%
same,inhibition at 10 µM,PRKG1,11%
same,inhibition at 10 µM,EPHB3,0%
same,inhibition at 10 µM,MLCK,11%
same,inhibition at 10 µM,RET,8%
same,inhibition at 10 µM,IGF1R,0%
same,inhibition at 10 µM,JAK3 (JH1domain-cat.),49%
same,inhibition at 10 µM,[1],0%
same,inhibition at 10 µM,RIOK2,80%
same,inhibition at 10 µM,MAP3K19,95.8%
same,inhibition at 10 µM,[2],89%
same,inhibition at 10 µM,GRK7,43%
same,inhibition at 10 µM,BUB1,95.6%
same,inhibition at 10 µM,PCTK2,0%
same,inhibition at 10 µM,[3],2%
same,inhibition at 10 µM,JAK2 (JH1domain-cat.),42%
same,inhibition at 10 µM,LATS1,0%
same,inhibition at 10 µM,STK36,10%
same,inhibition at 10 µM,PIK3CA (I800L),5%
same,inhibition at 10 µM,ACVR1,2%
same,inhibition at 10 µM,CAMK1G,29%
same,inhibition at 10 µM,IKK-ε,23%
same,inhibition at 10 µM,AKT1,10%
same,inhibition at 10 µM,S6K1,51%
same,inhibition at 10 µM,CDK2,9%
same,inhibition at 10 µM,TLK1,19%
same,inhibition at 10 µM,CLK2,95.9%
same,inhibition at 10 µM,PYK2,0%
same,inhibition at 10 µM,PKMYT1,0%
same,inhibition at 10 µM,KIT (V559D),0%
same,inhibition at 10 µM,LATS2,28%
same,inhibition at 10 µM,MAP3K1,6%
same,inhibition at 10 µM,ERBB3,0%
same,inhibition at 10 µM,TESK1,9%
same,inhibition at 10 µM,ERK1,0%
same,inhibition at 10 µM,JNK1,76%
same,inhibition at 10 µM,SGK,91.1%
same,inhibition at 10 µM,CSNK1G3,83%
